{"source": "patent US20050165081A1", "about": "“Use of anastrozole for the treatment of post-menopausal women having early breast cancer” (priority 2001, published 2005)", "key": {"[1]": {"assay_type": "in vivo", "procedure": "(§1) The trial was designed to compare tamoxifen (20 mg once daily [od]) and anastrozole (1 mg od) and to compare tamoxifen (20 mg od) and the combination of anastrozole (1 mg od) plus tamoxifen (20 mg od) as adjuvant treatment in terms of: • a) time to recurrence of breast cancer (defined as the earliest of local or distant recurrence, new primary breast cancer, or death); and • b) safety and side effects. Secondary objectives of this trial were to compare (i) tamoxifen and anastrozole and (ii) to compare tamoxifen and the combination of anastrozole plus tamoxifen as adjuvant treatment in terms of: • a) time to distant recurrence; • b) survival; and • c) incidence of new breast primaries.\n(§2) Specifically, the trial was designed as a randomised, double-blind, multicentre trial to compare the efficacy and safety of tamoxifen alone, anastrozole alone and anastrozole in combination with tamoxifen as adjuvant treatment for breast cancer in post-menopausal women.\nAt the major analysis, the incidence rates of the following pre-defined adverse events was formally compared between treatment groups defined by treatment received: hot flushes, nausea and vomiting, asthenia, mood disturbances, musculo-skeletal disorders, vaginal bleeding, vaginal discharge, endometrial cancer, fractures, cataract, venous thromboembolic events, and ischaemic cardiovascular disease. The primary analysis includes all patients who received trial treatment, analysed according to treatment received. A secondary subgroup analysis was also be undertaken, analysed according to trial treatment received, in patients with oestrogen receptor (ER) positive and/or progesterone receptor (PR) positive tumours, patients with ER negative and PR negative tumours, and all other patients remaining safety data was summarised and presented by treatment received."}, "early breast cancer": {"system": "early breast cancer", "assay": "Randomised, double-blind, multicentre adjuvant trial: time to disease recurrence / disease-free survival and new breast primaries", "assay_type": "in vivo, post-menopausal women", "details": "for First event / First events: Contralateral (DCIS) / First events: Contralateral (invasive) / First events: Death - breast cancer / First events: Death - other reason / First events: Distant / First events: Locoregional: number of first events, ITT population", "procedure": "as §1, §2\nPatients were assessed at entry, 3 months, 6 months and thereafter at 6-month intervals. Patients were recruited from 381 centres and in 21 countries. The patients were recruited between July 1996 and March 2000.\nThe double blind trial used both active and placebo anastrozole and tamoxifen tables, in order to maintain blindness to trial therapy. Anastrozole 1 mg and matching anastrozole placebo were supplied as white, film-coated tablets. Tamoxifen 20 mg active tablets and matching tamoxifen placebo were supplied as white, round, biconvex tablets. Patients were randomised to receive one of three oral therapy regimens. The daily dose is one tablet of anastrozole (1 mg active or placebo) plus one tablet of tamoxifen (20 mg active or placebo). Patients were instructed to take their daily dose at approximately the same time each day. At entry to the trial patients received either a 13-week supply or a 26-week supply of trial material. Patients who received a 13-week supply received a further 13-week supply at the first follow-up visit (3-months). From the 6-month visit onwards, patients received a 26-week supply. In order to assess compliance, patients were asked to return all unused tablets at each visit.\nTherapy was started as soon as possible after randomisation, but not more than 8 weeks after completion of surgery and chemotherapy. […] Primary chemotherapy must have started within 8 weeks of completing primary surgery. Patients who stop primary chemotherapy before completion of the planned number of cycles may also be randomised. […] These drugs include the following:— • cytotoxic chemotherapy; • oral adminstration of ketoconazole (antifungal) or related compounds (i.e. topical applications are acceptable); • other hormonal treatments for breast cancer.\nPatients were reviewed for recurrence of breast cancer at all follow-up visits, using the following criteria, which are based on British Breast Group recommendations:—\nNew breast primaries (either contralateral or ipsilateral) were regarded as disease recurrence events in the statistical analyses of time to recurrence.\nThe primary statistical endpoint of the trial was time to disease recurrence (locoregional or distant recurrence, new primary breast cancer or death from any cause) and safety/tolerability. The secondary statistical endpoints were time to distant recurrence, time to death, the incidence of new breast primaries and the incidence of pre-defined adverse events. In summary, two treatment comparisons were made: (1) anastrozole alone compared to tamoxifen alone and (2) tamoxifen alone compared to anastrozole and tamoxifen in combination."}, "breast cancer": {"system": "breast cancer", "details": "adjuvant tamoxifen for two years or more, no concomitant chemotherapy; cited from earlier work"}, "advanced breast cancer": {"system": "advanced breast cancer", "details": "advanced disease, cited from earlier work"}}, "note": "“Also recorded” adds a separate entry of the source. Where a name gives a salt, the structure may show the parent alone. Read-outs that look alike come from different tables or passages of the source.", "data": [{"smiles": "CC(C)(C#N)c1cc(Cn2cncn2)cc(C(C)(C)C#N)c1", "note": "[anastrozole]", "values": [{"measurement": "overall tolerability in the adjuvant programme", "setting": "[1]; FIG. 4, pre-defined adverse events", "value": "well tolerated"}, {"measurement": "tolerability versus tamoxifen", "setting": "[1]; endometrial cancer, vaginal bleeding, vaginal discharge, ischemic cerebrovascular events, venous thromboembolic events, hot flushes, weight gain", "value": "significantly better tolerated"}, {"measurement": "rate of disease recurrence, comparison in words", "setting": "early breast cancer; FIG. 2, receptor positive population", "value": "superior to tamoxifen"}, {"measurement": "HR, disease-free survival", "setting": "early breast cancer; ITT (overall) population, versus tamoxifen, HR <1.00 favours anastrozole or the combination", "value": 0.83}, {"measurement": "reduction in recurrence rate", "setting": "early breast cancer; hormone receptor positive (ER and/or PR positive) patients, versus tamoxifen", "value": 22, "unit": "%"}, {"measurement": "reduction in the rate of recurrence events", "setting": "early breast cancer; main analysis, all patients, versus tamoxifen, locoregional, distant, contralateral events and deaths", "value": 17, "unit": "%"}, {"measurement": "First event", "setting": "early breast cancer", "value": 317}, {"measurement": "First events: Contralateral (DCIS)", "setting": "early breast cancer", "value": 5}, {"measurement": "First events: Contralateral (invasive)", "setting": "early breast cancer", "value": 9}, {"measurement": "First events: Death - breast cancer", "setting": "early breast cancer", "value": 2}, {"measurement": "First events: Death - other reason", "setting": "early breast cancer", "value": 78}, {"measurement": "First events: Distant", "setting": "early breast cancer", "value": 156}, {"measurement": "First events: Locoregional", "setting": "early breast cancer", "value": 67}, {"measurement": "incidence of new primary (contralateral) breast cancer, comparison in words", "setting": "early breast cancer; overall population", "value": "significantly more effective than tamoxifen"}, {"measurement": "disease-free survival / rate of disease recurrence, comparison in words", "setting": "early breast cancer; overall population, adjuvant treatment of early breast cancer", "value": "significantly more effective than tamoxifen; also recorded: superior to tamoxifen"}, {"measurement": "incidence of new primary (contralateral) breast cancer, comparison in words", "setting": "early breast cancer; overall population, listed as anastrazole", "value": "superiority"}, {"measurement": "HR, incidence of new (contralateral) breast primaries", "setting": "early breast cancer; overall population, versus tamoxifen", "value": 0.42}, {"measurement": "OR, incidence of contralateral breast cancer", "setting": "early breast cancer; overall population, versus tamoxifen, 1.00 would show equivalence", "value": 0.42}, {"measurement": "HR, disease-free survival", "setting": "early breast cancer; receptor positive population, versus tamoxifen", "value": 0.78}]}, {"smiles": "CC/C(=C(\\c1ccccc1)c1ccc(OCCN(C)C)cc1)c1ccccc1", "note": "[tamoxifen, tamoxifen citrate]", "values": [{"measurement": "annual reduction in mortality", "setting": "breast cancer", "value": 24, "unit": "%"}, {"measurement": "annual reduction in recurrence", "setting": "breast cancer", "value": 39, "unit": "%"}, {"measurement": "tolerability versus anastrozole", "setting": "[1]; musculoskeletal disorders and fractures", "value": "better tolerated"}, {"measurement": "patients who will respond", "setting": "advanced breast cancer; ER and PR negative patients", "value": "< 10", "unit": "%"}, {"measurement": "patients who will respond", "setting": "advanced breast cancer; ER and PR positive patients", "value": "approximately 70%"}, {"measurement": "First event", "setting": "early breast cancer", "value": 379}, {"measurement": "First events: Contralateral (DCIS)", "setting": "early breast cancer", "value": 3}, {"measurement": "First events: Contralateral (invasive)", "setting": "early breast cancer", "value": 30}, {"measurement": "First events: Death - breast cancer", "setting": "early breast cancer", "value": 1}, {"measurement": "First events: Death - other reason", "setting": "early breast cancer", "value": 81}, {"measurement": "First events: Distant", "setting": "early breast cancer", "value": 181}, {"measurement": "First events: Locoregional", "setting": "early breast cancer", "value": 83}]}]}
